# Experimental data published in ChEMBL document CHEMBL2040736, “Design of potent and selective hybrid inhibitors of the mitotic kinase Nek2: structure-activity relationship, structural biology, and cellular activity” (J Med Chem, 2012).
# Assays:
# [1] = target: Serine/threonine-protein kinase PLK1 (Homo sapiens, UniProt P53350); assay: Inhibition of Plk1 using 5-FAMRRRAGALMDASFEEQ- CONH2 as substrate after 75 mins by caliper method
# [2] = target: T1, Serine/threonine-protein kinase Nek2 (Homo sapiens, UniProt P51955)
# T1 sequence (P51955 whole entry): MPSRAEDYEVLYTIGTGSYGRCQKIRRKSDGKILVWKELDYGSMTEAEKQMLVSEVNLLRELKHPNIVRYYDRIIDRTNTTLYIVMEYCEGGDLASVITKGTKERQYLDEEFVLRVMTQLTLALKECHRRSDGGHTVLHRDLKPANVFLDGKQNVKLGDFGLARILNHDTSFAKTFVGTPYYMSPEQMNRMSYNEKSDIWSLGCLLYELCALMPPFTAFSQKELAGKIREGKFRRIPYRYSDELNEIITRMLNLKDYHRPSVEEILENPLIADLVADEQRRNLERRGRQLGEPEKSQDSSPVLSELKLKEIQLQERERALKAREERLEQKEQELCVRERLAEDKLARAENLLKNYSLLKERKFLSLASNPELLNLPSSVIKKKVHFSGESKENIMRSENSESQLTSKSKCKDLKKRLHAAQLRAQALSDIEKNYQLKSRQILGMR
# [3] = Drug metabolism in mouse liver microsomes after 30 mins; assay type: ADME, Microsome; settings: read-out: Drug metabolism
# [4] = target: T2, Dual specificity protein kinase TTK (Homo sapiens, UniProt P33981); assay: Inhibition of MPS1 by caliper method
# T2 sequence (P33981 whole entry): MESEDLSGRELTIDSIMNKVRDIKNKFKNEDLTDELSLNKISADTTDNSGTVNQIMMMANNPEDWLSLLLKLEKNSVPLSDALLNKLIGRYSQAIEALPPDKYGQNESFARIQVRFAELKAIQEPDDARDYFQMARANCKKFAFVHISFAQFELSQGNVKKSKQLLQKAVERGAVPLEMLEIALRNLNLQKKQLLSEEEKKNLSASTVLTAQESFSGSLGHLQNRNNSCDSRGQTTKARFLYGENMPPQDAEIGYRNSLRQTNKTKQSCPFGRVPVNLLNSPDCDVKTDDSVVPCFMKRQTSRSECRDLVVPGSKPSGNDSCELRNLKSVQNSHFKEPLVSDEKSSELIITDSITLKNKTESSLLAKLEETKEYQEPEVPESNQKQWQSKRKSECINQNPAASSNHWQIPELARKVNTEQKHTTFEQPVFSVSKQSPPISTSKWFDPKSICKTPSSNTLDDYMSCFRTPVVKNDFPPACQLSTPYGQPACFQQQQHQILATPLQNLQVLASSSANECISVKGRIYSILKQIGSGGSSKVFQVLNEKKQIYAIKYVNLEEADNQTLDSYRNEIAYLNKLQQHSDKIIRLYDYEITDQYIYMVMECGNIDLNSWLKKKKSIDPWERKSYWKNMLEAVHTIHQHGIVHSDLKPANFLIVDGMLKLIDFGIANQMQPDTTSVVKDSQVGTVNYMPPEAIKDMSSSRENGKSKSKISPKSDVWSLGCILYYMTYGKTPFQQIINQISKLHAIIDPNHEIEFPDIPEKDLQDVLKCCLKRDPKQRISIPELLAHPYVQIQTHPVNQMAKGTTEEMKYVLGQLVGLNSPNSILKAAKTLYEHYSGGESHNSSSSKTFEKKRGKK
# Aurora kinase A = target: T3, Aurora kinase A (Homo sapiens, UniProt O14965); assay: Inhibition of Aurora A kinase by caliper method
# T3 sequence (O14965 whole entry): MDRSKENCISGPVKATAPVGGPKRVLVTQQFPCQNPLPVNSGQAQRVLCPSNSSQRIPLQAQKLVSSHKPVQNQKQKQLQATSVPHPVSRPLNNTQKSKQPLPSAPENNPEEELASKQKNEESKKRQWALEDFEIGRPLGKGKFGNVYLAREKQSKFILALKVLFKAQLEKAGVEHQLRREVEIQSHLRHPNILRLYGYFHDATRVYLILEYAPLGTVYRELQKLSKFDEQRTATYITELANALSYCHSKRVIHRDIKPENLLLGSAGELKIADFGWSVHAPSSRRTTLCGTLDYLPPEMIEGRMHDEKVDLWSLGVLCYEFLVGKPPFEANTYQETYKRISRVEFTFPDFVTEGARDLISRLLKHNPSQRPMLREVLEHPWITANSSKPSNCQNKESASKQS
# [5] = target: Cyclin-dependent kinase 2 (Homo sapiens, UniProt P24941); assay: Inhibition of CDK2 by caliper method
# U2OS = assay: Growth inhibition of human U2OS cells after 92 hrs by CellTiter-Blue assay; assay type: functional
# MDA-MB-231 = assay: Growth inhibition of human MDA-MB-231 cells after 92 hrs by CellTiter-Blue assay; assay type: functional; settings: MDA-MB-231, 92 h
# HeLa = assay: Growth inhibition of human HeLa cells after 92 hrs by CellTiter-Blue assay; assay type: functional
# MCF7 = assay: Growth inhibition of human MCF7 cells after 92 hrs by CellTiter-Blue assay; assay type: functional; settings: MCF7, 92 h
# [6] = target: T1, Serine/threonine-protein kinase Nek2; settings: u2os
# Description: Inhibition of Nek2-mediated C-Nap1 phosphorylation in human U2OS cells after 3 hrs by immunofluorescence microscopy
# [7] = Permeability of the compound by PAMPA assay; assay type: ADME
# Serine/threonine-protein kinase PLK1, sequence (P53350 whole entry): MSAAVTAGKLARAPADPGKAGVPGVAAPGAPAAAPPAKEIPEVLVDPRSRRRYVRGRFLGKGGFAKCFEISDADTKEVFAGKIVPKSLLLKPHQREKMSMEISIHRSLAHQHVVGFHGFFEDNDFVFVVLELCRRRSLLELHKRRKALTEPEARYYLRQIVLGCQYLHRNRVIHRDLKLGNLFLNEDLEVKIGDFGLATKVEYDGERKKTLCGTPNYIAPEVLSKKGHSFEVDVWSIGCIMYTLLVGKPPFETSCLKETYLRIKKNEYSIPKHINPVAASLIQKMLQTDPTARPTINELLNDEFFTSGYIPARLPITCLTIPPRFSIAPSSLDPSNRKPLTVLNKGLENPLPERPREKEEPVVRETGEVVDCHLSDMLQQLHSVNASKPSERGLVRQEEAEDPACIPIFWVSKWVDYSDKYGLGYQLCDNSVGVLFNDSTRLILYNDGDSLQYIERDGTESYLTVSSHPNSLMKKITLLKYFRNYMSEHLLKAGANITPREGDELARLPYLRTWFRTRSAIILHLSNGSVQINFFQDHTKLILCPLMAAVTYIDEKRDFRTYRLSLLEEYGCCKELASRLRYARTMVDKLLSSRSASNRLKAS
smiles,measurement,setting,value
CC(Oc1cc(-c2nc(-c3ccc(CN(C)C)cc3)cnc2N)ccc1C(N)=O)c1ccccc1C(F)(F)F (racemic),IC50,[1],3.9 µM
same,IC50,[2],0.79 µM
CC(Oc1cc(-c2cc(-c3cc(CN(C)C)cs3)cnc2N)ccc1C(N)=O)c1ccccc1C(F)(F)F (racemic),IC50,[1],1.32 µM
same,metabolised at 0.5 h,[3],87%
CC(Oc1cc(-c2cc(-c3ccc(CN4CCOCC4)s3)cnc2N)ccc1C(N)=O)c1ccccc1C(F)(F)F (racemic),IC50,[2],0.318 µM
CC(Oc1cc(-c2cc(-c3ccc(CN(C)C)cc3)cnc2N)ccc1C(N)=O)c1ccccc1C(F)(F)F (racemic),IC50,[1],1.56 µM
same,IC50,[4],3.06 µM
same,IC50,Aurora kinase A,7.93 µM
same,IC50,[5],2.74 µM
same,IC50,[2],0.12 µM
Cc1cc(CN(C)C)sc1-c1cnc(N)c(-c2ccc(C(N)=O)c(OC(C)c3ccccc3C(F)(F)F)c2)c1 (racemic),IC50,[2],0.058 µM
CC(Oc1cc(-c2nc(-c3cc(CN(C)C)cs3)cnc2N)ccc1C(N)=O)c1ccccc1C(F)(F)F (racemic),IC50,[2],2.63 µM
CC(Oc1cc(-c2cc(-c3cccs3)cnc2N)ccc1C(N)=O)c1ccccc1C(F)(F)F (racemic),IC50,[2],9 µM
Cc1cc(-c2cnc(N)c(-c3ccc(C(N)=O)c(OC(C)c4ccccc4C(F)(F)F)c3)c2)sc1CN(C)C (racemic),IC50,[2],0.047 µM
CC(Oc1cc(-c2cc(-c3ccc(CN4CCCCC4)s3)cnc2N)ccc1C(N)=O)c1ccccc1C(F)(F)F (racemic),IC50,[2],0.093 µM
CC(Oc1cc(-c2nc(-c3cccc(CN(C)C)c3)cnc2N)ccc1C(N)=O)c1ccccc1C(F)(F)F (racemic),IC50,[1],12.1 µM
same,IC50,[2],2.47 µM
COc1cc(-c2cc(-c3cc(CN(C)C)cs3)cnc2N)ccc1C(N)=O,IC50,[2],2.26 µM
COc1cc(-c2cc(-c3cccs3)cnc2N)ccc1C(N)=O,IC50,[2],10.5 µM
CC(Oc1cc(-c2cc(-c3cccc(CN(C)C)c3)cnc2N)ccc1C(N)=O)c1ccccc1C(F)(F)F (racemic),IC50,[1],3.29 µM
same,IC50,[2],0.21 µM
CC(Oc1cc(-c2nc(-c3ccc(CN(C)C)s3)cnc2N)ccc1C(N)=O)c1ccccc1C(F)(F)F (racemic),IC50,[2],2.68 µM
CC(Oc1cc(-c2cc(-c3ccc(CN(C)C)s3)cnc2N)ccc1C(N)=O)c1ccccc1C(F)(F)F (racemic),IC50,[1],0.5 µM
same,IC50,[2],0.047 µM
C[C@@H](/C=C\C(F)(F)F)Oc1cc(-c2cc(-c3cc(CN(C)C)cs3)cnc2N)ccc1C(N)=O,IC50,[1],> 50 µM
same,IC50,[4],7.12 µM
same,IC50,Aurora kinase A,2.33 µM
same,IC50,[5],0.53 µM
same,GI50,U2OS,2.17 µM
same,GI50,MDA-MB-231,7.25 µM
same,GI50,HeLa,0.44 µM
same,GI50,MCF7,5.42 µM
same,IC50,[2],1.8 µM
same,IC50,[6],Not Active
CC(Oc1cc(-n2cnc3cc(OC4CCN(C)CC4)ccc32)ccc1C(N)=O)c1ccccc1C(F)(F)F (racemic),GI50,U2OS,2.96 µM
same,GI50,MDA-MB-231,4.95 µM
same,GI50,HeLa,1.2 µM
same,GI50,MCF7,2.03 µM
same,IC50,[6],Not Active
CC(/C=C\C(F)(F)F)Oc1cc(-c2cc(-c3cc(CN(C)C)cs3)cnc2N)ccc1C(N)=O (racemic),IC50,[1],8.41 µM
same,permeability,[7],27.6 ×10⁻⁶ cm/s
same,metabolised at 0.5 h,[3],95%
same,IC50,[2],0.073 µM
C[C@@H](Oc1cc(-c2cc(-c3cc(CN(C)C)cs3)cnc2N)ccc1C(N)=O)c1ccccc1C(F)(F)F,IC50,[1],0.82 µM
same,IC50,[4],4.81 µM
same,IC50,Aurora kinase A,8.81 µM
same,IC50,[5],26.6 µM
same,GI50,U2OS,0.48 µM
same,GI50,MDA-MB-231,0.95 µM
same,GI50,HeLa,0.14 µM
same,GI50,MCF7,0.22 µM
